Experimental findings from PubChem BioAssay (NCI) are described below.

Structures are written as SMILES.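 Five compound concentrations were applied to cells in 96-well plates for 48 hours; endpoints were derived by simple linear interpolation of the resulting dose-response curve. TGI denotes the concentration required for complete inhibition of growth.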 Bounds are passed on as bounds.

Common to all, as to experiment: NCI anticancer screen, dose series, 48 h
Experiment [1] concerns SK-MEL-2 melanoma.
Experiment [2] deals with SF-268 CNS.
Experiment [3] concerns MDA-MB-435.
In experiment [4] the test system is K-562 leukemia.
The test system of experiment [5] is BT-549 breast.
The test system of experiment [6] is HCT-116 colon.
The subject of experiment [7] is PC-3 prostate.
In experiment [8] the test system is NCI-H226 lung.
Experiment [9] has as its system OVCAR-5 ovarian.
The test system of experiment [10] is SF-295 CNS.
Experiment [11] has as its system CAKI-1 renal.
In experiment [12] the test system is MOLT-4 leukemia.
In experiment [13] the test system is HCT-15 colon.
Experiment [14] relates to 786-0 renal.
Experiment [15] concerns U251 CNS.
The test system of experiment [16] is NCI-H522 lung.
The subject of experiment [17] is MDA-MB-231 breast.
In experiment [18] the test system is SNB-19 CNS.
The subject of experiment [19] is TK-10 renal.

With `C#CC1NC(=O)C1N(CC)CC` (stereo unspecified), the TGI in experiment [1], in experiment [2], in [3], in experiment [4], in experiment [5] and in experiment [6] was above 100 µM throughout. In addition, the TGI in experiment [7], in experiment [8], in experiment [9], in experiment [10], in experiment [11] and in [12] was above 100 µM in each case. The TGI in experiment [13], in experiment [14], in experiment [15], in experiment [16], in experiment [17] and in experiment [18] was above 100 µM in each case. This compound also registered a TGI in experiment [19] above 100 µM.
With `NC(Cc1ccc(B(O)O)cc1)C(=O)NC(CO)CO` (stereo unspecified), the TGI in experiment [1], in experiment [2], in experiment [3], in experiment [4], in [5] and in [6] was above 100 µM in each case. Also, the TGI in experiment [7], in experiment [8], in experiment [9], in experiment [10], in [11] and in experiment [12] was above 100 µM each time. Moreover, the TGI in [13], in experiment [14], in experiment [15], in experiment [16], in experiment [17] and in [18] was above 100 µM each time. In experiment [19], the TGI was above 100 µM.
For `COc1cc2ccc1OCc1cccc(n1)COc1ccc(cc1OC)C=NCCNCCN=C2`, the TGI in experiment [1], in experiment [2], in [3], in experiment [4], in [5] and in experiment [6] was above 100 µM throughout. Besides, the TGI in experiment [7], in experiment [8], in experiment [9], in experiment [10], in experiment [11] and in [12] was above 100 µM in each case. The TGI in [13], in [14], in [15], in [16], in [17] and in experiment [18] was above 100 µM each time. The compound also showed a TGI in [19] above 100 µM.
`N/C(=N\S(=O)(=O)c1cc(Cl)c(Oc2ccc([N+](=O)[O-])cc2Cl)c(Cl)c1)Nc1ccc(Cl)cc1`: the TGI in experiment [1] was 36.2 µM; in [2], above 100 µM; in experiment [3] it was 33.6 µM; in [4] it was 43.1 µM; in [5], 32.3 µM; in [6] it was 34.3 µM. Moreover, the TGI in experiment [7] was found to be 30.5 µM; in experiment [8] it was 33.2 µM; in [9], 53.6 µM; in experiment [10] it was 39.5 µM; in experiment [11], 33.1 µM; in [12], 34.2 µM. The TGI in [13] is 33.3 µM; in experiment [14], 35.1 µM; in experiment [15], 29.6 µM; in [16], above 100 µM; in experiment [17], 32.9 µM; in [18], 33.6 µM. This compound also yielded a TGI in experiment [19] of 35.4 µM.
On to `O=c1oc2ccc3ccccc3c2cc1-c1nc2ccc([N+](=O)[O-])cc2o1`, for which the TGI in [1] is above 100 µM; in experiment [2], above 90.2 µM; in experiment [3] it was above 100 µM; in experiment [4], above 100 µM; in experiment [5] it was above 95 µM; in experiment [6], above 100 µM. Further, the TGI was above 100 µM in experiment [7]; above 100 µM in experiment [8]; above 100 µM in experiment [9]; above 49.5 µM in experiment [10]; above 91.4 µM in experiment [11]; above 100 µM in [12]. For the same compound, the TGI in [13] is above 100 µM; in experiment [14] it was above 55.3 µM; in [15], above 100 µM; in [16], above 100 µM; in experiment [17] it was above 100 µM; in experiment [18], above 28.6 µM. The TGI in experiment [19] is above 78.6 µM.
As for `O=C1CC2SC(COCc3ccccc3)(CCN2Cc2ccccc2)C1` (stereo unspecified), the TGI in experiment [1], in experiment [2], in experiment [3], in [4], in [5] and in experiment [6] was above 100 µM throughout. Further, the TGI in experiment [7] was above 100 µM; in experiment [8], above 100 µM; in experiment [9], above 100 µM; in experiment [10] it was above 100 µM; in experiment [11], above 100 µM; in experiment [12], 91.9 µM. Besides, the TGI in experiment [13], in experiment [14], in experiment [15], in experiment [16], in experiment [17] and in experiment [18] was above 100 µM each time. This compound also registered a TGI in experiment [19] of 76.3 µM.
Consider `Cc1cccc2c1c(=O)c1c(O)cc(O)cc1n2C`, for which the TGI in [1], in experiment [2], in experiment [3], in [4], in [5] and in experiment [6] was above 100 µM each time. Also, the TGI in [7], in [8], in [9], in [10], in [11] and in experiment [12] was above 100 µM in each case. In addition, the TGI in experiment [13], in experiment [14], in [15], in experiment [16], in [17] and in [18] was above 100 µM each time. This compound also showed a TGI in experiment [19] above 100 µM.
`COc1ccc(/C=C/C(=O)c2ccc(OC(=O)/C=C/c3ccccc3)cc2)cc1`: the TGI in experiment [1] was above 100 µM; in [2], above 68.1 µM; in experiment [3], above 100 µM; in [4], above 100 µM; in experiment [5], above 58.3 µM; in experiment [6] it was 40.4 µM. Besides, the TGI in experiment [7] is above 100 µM; in experiment [8], above 100 µM; in experiment [9] it was above 100 µM; in experiment [10], above 64 µM; in experiment [11], above 69.2 µM; in experiment [12], 50.6 µM. Besides, the TGI in experiment [13] is above 100 µM; in [14], 52.8 µM; in [15] it was above 100 µM; in experiment [16], 54.7 µM; in experiment [17], above 87.2 µM; in [18] it was above 63.4 µM. Further, the TGI in [19] was above 100 µM.
With `CC[C@@]1(CCC(=O)NCCc2c[nH]c3ccccc23)CCC(=O)N2CCc3c([nH]c4ccccc34)[C@H]21`, the TGI is 86.4 µM in experiment [1]; 30 µM in experiment [2]; 47.1 µM in experiment [3]; above 100 µM in experiment [4]; 19.2 µM in [5]; above 100 µM in experiment [6]. Also, the TGI in [7] was above 100 µM; in experiment [8] it was 77.8 µM; in experiment [9] it was above 100 µM; in experiment [10] it was 60.6 µM; in experiment [11], above 100 µM; in experiment [12], 34.4 µM. Moreover, the TGI in [13] was above 100 µM; in experiment [14], above 100 µM; in [15] it was above 100 µM; in [16] it was 18.8 µM; in [17], above 100 µM; in [18], above 100 µM. For the same compound, the TGI in experiment [19] was above 100 µM.
On to `CC(C)[C@@H](C)[C@@]1(C)C[C@@H]1[C@@H](C)[C@H]1CC[C@@H]([C@@H]2CC=C3C[C@@H](O)CC[C@]3(C)C2=O)[C@]1(C)CCO`, for which the TGI amounted to 33.3 µM in experiment [1]; 30.3 µM in experiment [2]; 24.3 µM in [3]; 18 µM in [4]; 30.3 µM in experiment [5]; 21.6 µM in [6]. In addition, the TGI in experiment [7] amounted to 21.8 µM; in [8], 26.8 µM; in experiment [9], 23.8 µM; in experiment [10] it was 21.2 µM; in experiment [11], 25.4 µM; in experiment [12], 19.3 µM. In addition, the TGI in [13] was 17.4 µM; in [14], 17.2 µM; in experiment [15], 23 µM; in experiment [16] it was 19.8 µM; in experiment [17], 28 µM; in experiment [18], 25.1 µM. The TGI in experiment [19] is 23.6 µM.
For `CCCCCCCCC/C=C1/CC(CO)(COC(=O)c2ccccc2)OC1=O` (stereo unspecified), the TGI in experiment [1] was found to be 32.4 µM; in experiment [2], 29.8 µM; in [3], 23.3 µM; in [4], 22.5 µM; in experiment [5], 27.1 µM; in experiment [6] it was 56.2 µM. Further, the TGI in [7] is 23.1 µM; in experiment [8] it was 22.9 µM; in [9], 24.6 µM; in experiment [10], 21.9 µM; in [11], 24.8 µM; in [12], 29.9 µM. For the same compound, the TGI in [13] was 29.8 µM; in [14] it was 29.4 µM; in experiment [15] it was 27.1 µM; in experiment [16], 26.6 µM; in experiment [17], 26.3 µM; in experiment [18], 29.1 µM. The compound also had a TGI in experiment [19] of 22.7 µM.
Turning to `COC(=O)C1=NN2c3ccccc3CN([C@@H](C)c3ccccc3)C(=O)[C@@H]2[C@H]1c1ccccc1`, the TGI in experiment [1], in [2], in [3], in experiment [4], in experiment [5] and in experiment [6] was above 100 µM each time. Also, the TGI in experiment [7], in [8], in [9], in [10], in [11] and in [12] was above 100 µM in each case. Also, the TGI in experiment [13], in experiment [14], in experiment [15], in [16], in experiment [17] and in experiment [18] was above 100 µM in each case. This compound displayed a TGI in experiment [19] above 100 µM.
In the case of `O=C1C(S(=O)(=O)c2ccccc2)=C(CS(=O)(=O)c2ccccc2)[C@@H](OCc2ccccc2)[C@@H]1OCc1ccccc1`, the TGI in [1] is 33.5 µM; in [2], above 100 µM; in [3], 92.7 µM; in [4] it was 35.8 µM; in experiment [5], 27 µM; in [6] it was 27 µM. Also, the TGI in experiment [7] was 85.8 µM; in experiment [8] it was 37.3 µM; in [9], 75.4 µM; in experiment [10], 40.4 µM; in experiment [11] it was above 100 µM; in [12], 46.7 µM. The TGI in [13] is 44 µM; in experiment [14] it was above 100 µM; in experiment [15] it was 53.3 µM; in experiment [16], 35.9 µM; in experiment [17], 60 µM; in experiment [18], above 100 µM. Further, in experiment [19], the TGI was above 100 µM.
As for `Cc1c(F)c(NC(=O)CN(C)C)c2c(=O)cc(-c3ccc(NC(=O)CN(C)C)c(F)c3)oc2c1F`, the TGI stood at 37.1 µM in experiment [1]; 38.3 µM in experiment [2]; 26.5 µM in experiment [3]; 37.5 µM in experiment [4]; 35.3 µM in experiment [5]; 29.3 µM in experiment [6]. Besides, the TGI in experiment [7] came out at 33.8 µM; in experiment [8], 29.2 µM; in [9] it was 41.1 µM; in experiment [10], 28.9 µM; in [11], 23.1 µM; in experiment [12], 31.9 µM. For the same compound, the TGI in experiment [13] was 33.7 µM; in [14] it was 31.1 µM; in experiment [15], 27.2 µM; in experiment [16] it was 41.4 µM; in experiment [17] it was 26.9 µM; in experiment [18], 41.2 µM. In addition, in experiment [19], the TGI was found to be 23.4 µM.
